The record followed here is ChEMBL document CHEMBL1135751, “A trypanocidal phenazine derived from beta-lapachone” (2002).

Molecules are shown by their SMILES.

This assay concerns Trypanosoma cruzi. The assay is described as follows: Trypanocidal effect on bloodstream trypomastigotes of Trypanosoma cruzi; ED50/24h. Format: functional.

`CC1(C)CCc2c(c3ccccc3c3nc4cc(Nc5ccccc5)/c(=N/c5ccccc5)cc-4n(-c4ccccc4)c23)O1` came in with an ED50 of 61.3 µM. The result for `CN(C)c1ccc(C(=C2C=CC(=[N+](C)C)C=C2)c2ccc(N(C)C)cc2)cc1` reads 536 µM.
